Experimental data as given in ChEMBL document CHEMBL5316362, “Synthesis of the Purported Structure of Glyphaeaside C and Proposed Revisions to the Structures of the Glyphaeaside Alkaloids” (J Nat Prod, 2023).
Each block holds one compound with its values, some of them ahead of it. Calls of active or inactive are those of the source. The rule behind the calls is not given here.

Key:
[1] = Inhibition of Almond beta-glucosidase; set-up: species or system Prunus dulcis
[2] = Inhibition of Almond beta-glucosidase using p-nitrophenyl glycoside as substrate preincubated for 5 mins followed by substrate addition and measured after 15 mins by spectrometry analysis; set-up: species or system Prunus dulcis
[3] = Inhibition of rice alpha glucosidase; set-up: species or system Oryza sativa
[4] = Inhibition of rat intestinal maltase; format: tissue-based, Intestine
Alpha-glucosidase = Alpha-glucosidase (Saccharomyces cerevisiae S288c, UniProt P53341+P38158+P07265); assay: Inhibition of yeast alpha-glucosidase; format: protein assay
[5] = target: Lysosomal alpha-glucosidase (Homo sapiens, UniProt P10253); assay: Inhibition of human lysosomal alpha-glucosidase; format: subcellular, Lysosome
[6] = (§1) Inhibition of almond beta-glucosidase at 100 uM relative to control; set-up: species or system Prunus dulcis
[7] = Inhibition of Bovine liver beta-glucosidase; format: tissue-based, Bos taurus
Alpha-galactosidase = Alpha-galactosidase (Coffea arabica, UniProt Q42656); assay: Inhibition of coffee bean alpha-galactosidase
Alpha-galactosidase, sequence (Q42656 whole entry): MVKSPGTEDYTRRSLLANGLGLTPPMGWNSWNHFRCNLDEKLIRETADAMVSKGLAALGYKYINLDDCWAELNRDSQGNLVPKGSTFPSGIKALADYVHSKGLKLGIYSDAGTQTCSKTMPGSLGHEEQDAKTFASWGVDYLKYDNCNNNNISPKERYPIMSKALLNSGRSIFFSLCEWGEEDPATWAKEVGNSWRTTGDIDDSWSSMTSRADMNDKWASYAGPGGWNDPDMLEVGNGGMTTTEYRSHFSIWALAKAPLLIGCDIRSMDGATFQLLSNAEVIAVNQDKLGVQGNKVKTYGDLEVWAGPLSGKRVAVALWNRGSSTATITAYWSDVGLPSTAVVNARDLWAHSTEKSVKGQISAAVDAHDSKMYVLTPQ

[8] = Inhibition of bovine liver beta-galactosidase; format: tissue-based, Bos taurus
[9] = target: T1, Alpha-mannosidase (Canavalia ensiformis) (UniProt C0HJB3); assay: Inhibition of jack bean alpha-mannosidase at 1000 uM
T1 sequence (whole entry): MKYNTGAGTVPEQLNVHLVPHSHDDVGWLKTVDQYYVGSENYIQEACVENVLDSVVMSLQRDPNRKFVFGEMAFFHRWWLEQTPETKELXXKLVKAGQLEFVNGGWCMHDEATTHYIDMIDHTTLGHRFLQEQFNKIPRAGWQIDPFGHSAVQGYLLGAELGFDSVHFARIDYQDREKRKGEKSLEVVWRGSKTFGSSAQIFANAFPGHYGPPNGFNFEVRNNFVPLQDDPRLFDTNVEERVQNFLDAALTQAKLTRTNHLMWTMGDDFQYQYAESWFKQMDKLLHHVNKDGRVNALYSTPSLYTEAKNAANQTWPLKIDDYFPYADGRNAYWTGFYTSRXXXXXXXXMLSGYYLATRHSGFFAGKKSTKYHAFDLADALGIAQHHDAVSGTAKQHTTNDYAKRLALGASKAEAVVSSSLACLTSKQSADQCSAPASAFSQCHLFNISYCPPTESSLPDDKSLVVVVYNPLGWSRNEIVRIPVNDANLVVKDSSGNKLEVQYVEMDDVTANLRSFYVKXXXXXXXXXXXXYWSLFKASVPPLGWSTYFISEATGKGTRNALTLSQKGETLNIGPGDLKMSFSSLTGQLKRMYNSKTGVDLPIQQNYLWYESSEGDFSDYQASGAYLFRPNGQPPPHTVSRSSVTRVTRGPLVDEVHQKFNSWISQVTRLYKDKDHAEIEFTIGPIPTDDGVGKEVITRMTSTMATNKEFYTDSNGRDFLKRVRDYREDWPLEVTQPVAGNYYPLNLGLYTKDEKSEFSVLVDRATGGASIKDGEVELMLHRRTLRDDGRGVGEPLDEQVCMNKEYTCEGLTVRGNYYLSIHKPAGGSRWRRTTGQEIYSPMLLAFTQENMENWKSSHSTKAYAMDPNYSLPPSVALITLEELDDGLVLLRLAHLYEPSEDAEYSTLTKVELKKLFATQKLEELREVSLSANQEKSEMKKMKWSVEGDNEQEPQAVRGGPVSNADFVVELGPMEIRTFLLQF

Helix pomatia [10] = assay: Inhibition of snail beta-mannosidase at 1000 uM
[11] = target: T2, Tissue alpha-L-fucosidase (Bos taurus) (UniProt Q2KIM0); assay: Inhibition of bovine kidney alpha-L-fucosidase at 1000 uM; format: tissue-based
T2 sequence (whole entry): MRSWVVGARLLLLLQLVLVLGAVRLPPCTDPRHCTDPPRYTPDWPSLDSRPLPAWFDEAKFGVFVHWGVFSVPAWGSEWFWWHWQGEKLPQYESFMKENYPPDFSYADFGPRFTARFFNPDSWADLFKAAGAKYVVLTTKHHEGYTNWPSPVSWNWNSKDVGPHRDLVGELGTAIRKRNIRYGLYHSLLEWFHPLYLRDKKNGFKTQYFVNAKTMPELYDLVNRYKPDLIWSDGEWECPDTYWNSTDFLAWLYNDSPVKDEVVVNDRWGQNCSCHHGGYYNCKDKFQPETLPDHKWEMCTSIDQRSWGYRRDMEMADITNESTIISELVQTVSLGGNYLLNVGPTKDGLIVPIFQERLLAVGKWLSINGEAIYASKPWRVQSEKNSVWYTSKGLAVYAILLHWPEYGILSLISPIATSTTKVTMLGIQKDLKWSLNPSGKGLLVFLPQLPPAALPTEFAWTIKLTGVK

Sus scrofa [12] = organism: Sus scrofa; assay: Inhibition of porcine kidney trehalase at 1000 uM relative to control; format: tissue-based
Aspergillus niger [13] = assay: Inhibition of Aspergillus niger amyloglucosidase at 1000 uM relative to control
Penicillium decumbens [14] = assay: Inhibition of Penicillium decumbens alpha-L-rhamnosidase at 1000 uM relative to control
[15] = target: Beta-glucuronidase (Escherichia coli (strain K12)) (UniProt P05804); assay: Inhibition of Escherichia coli beta-glucuronidase at 1000 uM
Beta-glucuronidase (Escherichia coli (strain K12)), sequence (P05804 whole entry, looked up): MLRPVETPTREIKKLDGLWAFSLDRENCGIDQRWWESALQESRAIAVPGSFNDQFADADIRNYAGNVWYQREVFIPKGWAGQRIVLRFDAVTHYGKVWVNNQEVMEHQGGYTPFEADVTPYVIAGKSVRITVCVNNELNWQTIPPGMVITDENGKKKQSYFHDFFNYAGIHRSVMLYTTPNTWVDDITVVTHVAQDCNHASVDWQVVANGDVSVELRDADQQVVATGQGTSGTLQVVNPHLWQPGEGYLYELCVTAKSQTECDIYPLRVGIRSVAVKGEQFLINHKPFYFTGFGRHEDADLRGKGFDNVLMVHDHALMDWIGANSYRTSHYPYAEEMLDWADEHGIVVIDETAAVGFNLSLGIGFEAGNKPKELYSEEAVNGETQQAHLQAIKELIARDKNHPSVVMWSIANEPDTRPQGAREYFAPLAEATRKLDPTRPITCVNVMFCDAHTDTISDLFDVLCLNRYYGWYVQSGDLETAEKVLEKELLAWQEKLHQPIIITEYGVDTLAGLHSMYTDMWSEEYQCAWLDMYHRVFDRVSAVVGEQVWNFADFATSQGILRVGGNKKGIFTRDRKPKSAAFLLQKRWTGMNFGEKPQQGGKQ

Bos taurus [16] = organism: Bos taurus; assay: Inhibition of bovine liver beta-glucuronidase at 1000 uM; format: tissue-based
[17] = Inhibition of human lysosomal alpha-galactosidase; format: subcellular, Lysosome
Prunus dulcis [18] = assay: as §1
Homo sapiens = organism: Homo sapiens; assay: Inhibition of human lysosomal alpha-galactosidase at 100 uM realtive to control; format: subcellular; settings: Lysosome
[19] = target: T1, Alpha-mannosidase (Canavalia ensiformis); assay: Inhibition of jack bean alpha-mannosidase at 100 uM
Helix pomatia [20] = assay: Inhibition of snail beta-mannosidase at 100 uM
[21] = target: T2, Tissue alpha-L-fucosidase (Bos taurus); assay: Inhibition of bovine kidney alpha-L-fucosidase at 100 uM
Sus scrofa [22] = organism: Sus scrofa; assay: Inhibition of porcine kidney trehalase at 100 uM relative to control; format: tissue-based
Aspergillus niger [23] = assay: Inhibition of Aspergillus niger amyloglucosidase at 100 uM relative to control
Penicillium decumbens [24] = assay: Inhibition of Penicillium decumbens alpha-L-rhamnosidase at 100 uM relative to control
[25] = target: Beta-glucuronidase (Escherichia coli (strain K12)) (UniProt P05804); assay: Inhibition of Escherichia coli beta-glucuronidase at 100 uM
Bos taurus [26] = organism: Bos taurus; assay: Inhibition of bovine liver beta-glucuronidase at 100 uM
[27] = target: Alpha-galactosidase (Coffea arabica) (UniProt Q42656); assay: Inhibition of coffee bean alpha-galactosidase at 1000 uM relative to control
Alpha-galactosidase (Coffea arabica), sequence (Q42656 16-378 limits assumed): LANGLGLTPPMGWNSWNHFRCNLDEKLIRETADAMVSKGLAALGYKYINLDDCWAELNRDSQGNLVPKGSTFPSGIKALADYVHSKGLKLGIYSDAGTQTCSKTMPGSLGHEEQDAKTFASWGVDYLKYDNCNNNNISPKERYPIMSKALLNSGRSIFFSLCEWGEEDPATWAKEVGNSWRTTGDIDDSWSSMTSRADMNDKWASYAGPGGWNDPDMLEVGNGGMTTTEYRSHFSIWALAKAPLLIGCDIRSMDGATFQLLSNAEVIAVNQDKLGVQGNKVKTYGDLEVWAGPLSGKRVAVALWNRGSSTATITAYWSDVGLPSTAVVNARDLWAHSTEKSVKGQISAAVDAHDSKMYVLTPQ

Prunus dulcis [28] = assay: Inhibition of almond beta-glucosidase at 1000 uM relative to control
Prunus dulcis [29] = assay: Inhibition of Almond beta-glucosidase at 412 uM relative to control

IC50 [1]: 40 µM
Structure (SMILES): OC[C@H]1N[C@H](CO)[C@@H](O)[C@H]1O

IC50 [1]: 0.92 µM
Structure (SMILES): OC[C@H]1N[C@H]([C@H](O)CCCCCC[C@H](O)[C@@H](O)Cc2ccc(O)cc2)[C@@H](O)[C@@H]1O

inhibition [27]: 76%
Structure (SMILES): OC[C@H]1N[C@H](C(O)CCCCCCC(O)C(O)c2ccccc2)[C@H](O)[C@@H](O)[C@H]1O (some centres undefined)

IC50 (Alpha-galactosidase): 8 µM
inhibition (Prunus dulcis [28]): < 50%
Structure (SMILES): OCCCCCC/C=C\C[C@H](O)[C@@H](O)[C@H]1N[C@H](CO)[C@H](O)[C@@H]1O[C@@H]1O[C@H](CO)[C@@H](O)[C@H](O)[C@H]1O

More lines, now with the values behind:

Structure (SMILES): OC[C@H]1N[C@H](CCCCCCC(O)C(O)Cc2ccc(O)cc2)[C@H](O)[C@@H](O)[C@@H]1O (some centres undefined)
IC50 [2]: 0.15 µM

Structure (SMILES): OC[C@H]1N[C@H]([C@H](O)C(O)CCCCCCC(O)C(O)c2ccccc2)[C@@H](O[C@@H]2O[C@H](CO)[C@@H](O)[C@H](O)[C@H]2O)[C@H]1O (some centres undefined)
IC50 [1]: 68 µM

Structure (SMILES): CCCCCCCC[C@H]1N[C@H](CO)[C@@H](O)[C@H](O)[C@H]1O
IC50 [3]: 0.7 µM
IC50 [4]: 1.7 µM
IC50 (Alpha-glucosidase): 71 µM
IC50 [5]: 0.6 µM
IC50 [6]: 175 µM
IC50 [7]: 195 µM
IC50 (Alpha-galactosidase): 3.3 µM
IC50 [8]: 52 µM
inhibition [9]: inactive
inhibition (Helix pomatia [10]): inactive
inhibition [11]: inactive
inhibition (Sus scrofa [12]): 43.2%
inhibition (Aspergillus niger [13]): 38.8%
inhibition (Penicillium decumbens [14]): 43.8%
inhibition [15]: inactive
inhibition (Bos taurus [16]): inactive
IC50 [1]: 175 µM
IC50 [17]: 13 µM

Structure (SMILES): O=C(O)C(F)(F)F.OC[C@H]1N[C@H](CCCCCCCCCc2ccc(O)cc2)[C@H](O)[C@@H](O)[C@@H]1O
IC50 [3]: 0.4 µM
IC50 [4]: 0.95 µM
IC50 (Alpha-glucosidase): 95 µM
IC50 [5]: 0.25 µM
inhibition (Prunus dulcis [18]): 33.1%
IC50 [7]: 25 µM
IC50 (Alpha-galactosidase): 22 µM
inhibition (Homo sapiens): 42.9%
IC50 [8]: 4.1 µM
inhibition [19]: inactive
inhibition (Helix pomatia [20]): inactive
inhibition [21]: inactive
inhibition (Sus scrofa [22]): 13.2%
inhibition (Aspergillus niger [23]): 16.4%
inhibition (Penicillium decumbens [24]): 10.9%
inhibition [25]: inactive
inhibition (Bos taurus [26]): inactive

Structure (SMILES): OC[C@H]1N[C@H]([C@H](O)C(O)CCCCCC(O)C(O)C(O)c2ccccc2)[C@@H](O[C@@H]2O[C@H](CO)[C@@H](O)[C@H](O)[C@H]2O)[C@H]1O (some centres undefined)
IC50 [1]: 15 µM

Structure (SMILES): OCCCCCCCCCCCC[C@H](O)[C@@H]1N[C@@H](CO)[C@H](O)[C@H]1O
inhibition (Prunus dulcis [29]): 15.2%
